According to patent publication US11702404B2, “GLP-1R modulating compounds” (priority 2019, dated 2023):
Where two headings read alike, the source gives them in different places.

Columns and labels:
[1] = Microsomal stability, human liver microsomes (predicted hepatic clearance); conditions: predicted from in vitro microsomal stability data
GLP-1R = GLP-1R (Homo sapiens, UniProt P43220); assay: GLP-1R activation: cAMP increase in CHO cells stably expressing GLP-1R; assay type: cell-based
[2] = cAMP increase, CHO cells stably expressing GLP-1R, 10 point dose response, 30 minutes incubation, read-out: EC50

Chain of GLP-1R (P43220 24-463): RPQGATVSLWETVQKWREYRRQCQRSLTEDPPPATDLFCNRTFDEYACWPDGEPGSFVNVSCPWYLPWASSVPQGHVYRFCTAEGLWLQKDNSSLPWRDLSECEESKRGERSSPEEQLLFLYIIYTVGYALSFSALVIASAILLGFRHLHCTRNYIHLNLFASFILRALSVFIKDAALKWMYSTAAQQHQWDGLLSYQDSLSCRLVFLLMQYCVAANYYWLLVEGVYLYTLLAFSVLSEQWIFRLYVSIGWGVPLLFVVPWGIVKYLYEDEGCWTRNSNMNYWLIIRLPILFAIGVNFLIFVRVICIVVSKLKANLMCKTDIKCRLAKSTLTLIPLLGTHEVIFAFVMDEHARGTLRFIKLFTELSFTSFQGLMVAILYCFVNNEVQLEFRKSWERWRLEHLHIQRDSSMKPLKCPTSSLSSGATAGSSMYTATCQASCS

Compound | Predicted Hepatic Clearance (Pred. Cl.) [1] [mL/min/kg] | EC50 (GLP-1R; [2]) [nM] | EC50 (GLP-1R; EC50 (nM)) [nM] | EC50 (GLP-1R; read-out: EC50) [nM]
COCCn1c(Cc2ccc(-c3cccc(OCc4cccc(=O)n4C)n3)cc2F)nc2ccc(C(=O)O)cc21 [Example 373, 2-(2-fluoro-4-(6-((1-methyl-6-oxo-1,6-dihydropyridin-2-yl)methoxy)pyridin-2-yl)benzyl)-1-(2-methoxyethyl)-1H-benzo[d]imidazole-6-carboxylic acid] | 19.5 | 4770 | – | –
COCCn1c(Cc2ccc(-c3cccc(OCc4cccn(C)c4=O)n3)cc2F)nc2ccc(C(=O)O)cc21 [Example 374, 2-(2-fluoro-4-(6-((1-methyl-2-oxo-1,2-dihydropyridin-3-yl)methoxy)pyridin-2-yl)benzyl)-1-(2-methoxyethyl)-1H-benzo[d]imidazole-6-carboxylic acid] | 6.5 | 1930 | – | –
N#Cc1ccc(COc2cccc(-c3ccc(Cc4nc5ccc(C(=O)O)cc5n4CC4(CO)CC4)c(F)c3)n2)c(F)c1 [Example 375, 2-(4-(6-((4-cyano-2-fluorobenzyl)oxy)pyridin-2-yl)-2-fluorobenzyl)-1-((1-(hydroxymethyl)cyclopropyl)methyl)-1H-benzo[d]imidazole-6-carboxylic acid] | 4.25 | 5.46 | – | –
N#CCC1(n2c(Cc3ccc(-c4cccc(OCc5ccc(C#N)cc5F)n4)cc3F)nc3ccc(C(=O)O)cc32)CC1 [Example 376, 2-(4-(6-((4-cyano-2-fluorobenzyl)oxy)pyridin-2-yl)-2-fluorobenzyl)-1-(1-(cyanomethyl)cyclopropyl)-1H-benzo[d]imidazole-6-carboxylic acid] | 3.83 | 1.53 | – | –
COCC1(n2c(Cc3ccc(-c4cccc(OCc5ccc(C#N)cc5F)n4)cc3F)nc3ccc(C(=O)O)cc32)CC1 [Example 377, 2-(4-(6-((4-cyano-2-fluorobenzyl)oxy)pyridin-2-yl)-2-fluorobenzyl)-1-(1-(methoxymethyl)cyclopropyl)-1H-benzo[d]imidazole-6-carboxylic acid] | 3.17 | 10.9 | – | –
COCCn1c(Cc2c(F)cc(-c3ccnc(OCc4ccc(C#N)cc4F)n3)cc2F)nc2ccc(C(=O)O)cc21 [Example 378, 2-(4-(2-((4-cyano-2-fluorobenzyl)oxy)pyrimidin-4-yl)-2,6-difluorobenzyl)-1-(2-methoxyethyl)-1H-benzo[d]imidazole-6-carboxylic acid] | 5.5 | 12.4 | – | –
N#Cc1ccc(COc2cccc(-c3ccc(Cc4nc5ccc(C(=O)O)cc5n4CCCF)c(F)c3)n2)c(F)c1 [Example 379, 2-(4-(6-((4-cyano-2-fluorobenzyl)oxy)pyridin-2-yl)-2-fluorobenzyl)-1-(3-fluoropropyl)-1H-benzo[d]imidazole-6-carboxylic acid] | 3.5 | 2.8 | – | –
COCC1(Cn2c(Cc3ccc(-c4cccc(OCc5ccc(C#N)cc5F)n4)cc3F)nc3ccc(C(=O)O)cc32)CC1 [Example 380, 2-(4-(6-((4-cyano-2-fluorobenzyl)oxy)pyridin-2-yl)-2-fluorobenzyl)-1-((1-(methoxymethyl)cyclopropyl)methyl)-1H-benzo[d]imidazole-6-carboxylic acid] | <1.83 | 7.72 | – | –
N#Cc1ccc(COc2cccc(-c3ccc(Cc4nc5ccc(C(=O)O)cc5n4C4(CF)CC4)c(F)c3)n2)c(F)c1 [Example 381, 2-(4-(6-((4-cyano-2-fluorobenzyl)oxy)pyridin-2-yl)-2-fluorobenzyl)-1-(1-(fluoromethyl)cyclopropyl)-1H-benzo[d]imidazole-6-carboxylic acid] | <1.83 | 7.43 | – | –
N#Cc1ccc(COc2cccc(-c3ccc(Cc4nc5ccc(C(=O)O)cc5n4CC4CCC4)c(F)c3)n2)c(F)c1 [Example 382, 2-(4-(6-((4-cyano-2-fluorobenzyl)oxy)pyridin-2-yl)-2-fluorobenzyl)-1-(cyclobutylmethyl)-1H-benzo[d]imidazole-6-carboxylic acid] | <1.83 | 8.7 | – | –
COCCn1c(Cc2ccc(-c3cccc(OCc4ccc(C#N)cc4F)n3)cc2NC(=O)OC)nc2ccc(C(=O)O)cc21 [Example 383, 2-(4-(6-((4-cyano-2-fluorobenzyl)oxy)pyridin-2-yl)-2-((methoxycarbonyl)amino)benzyl)-1-(2-methoxyethyl)-1H-benzo[d]imidazole-6-carboxylic acid] | 8.67 | – | 123 | –
CC1(Cn2c(Cc3ccc(-c4cccc(OCc5ccc(C#N)cc5F)n4)cc3F)nc3ccc(C(=O)O)cc32)CCC1 [Example 384, 2-(4-(6-((4-cyano-2-fluorobenzyl)oxy)pyridin-2-yl)-2-fluorobenzyl)-1-((1-methylcyclobutyl)methyl)-1H-benzo[d]imidazole-6-carboxylic acid] | <1.83 | 1.45 | – | –
N#Cc1ccc(COc2cccc(-c3ccc(Cc4nc5ccc(C(=O)O)cc5n4CC4(C(F)F)CCC4)c(F)c3)n2)c(F)c1 [Example 385, 2-(4-(6-((4-cyano-2-fluorobenzyl)oxy)pyridin-2-yl)-2-fluorobenzyl)-1-((1-(difluoromethyl)cyclobutyl)methyl)-1H-benzo[d]imidazole-6-carboxylic acid] | 5.33 | 1.34 | – | –
COCCn1c(Cc2ccc(-c3cccc(OCc4ccc(C#N)cc4F)n3)cc2F)nc2ccc(CC(=O)O)cc21 [Example 386, 2-(2-(4-(6-((4-cyano-2-fluorobenzyl)oxy)pyridin-2-yl)-2-fluorobenzyl)-1-(2-methoxyethyl)-1H-benzo[d]imidazol-6-yl)acetic acid] | 2 | – | 157 | –
COCCn1c(Cc2ccc(-c3cccc(OCc4ccc(C#N)cc4F)n3)cc2S(C)(=O)=O)nc2ccc(C(=O)O)cc21 [Example 387, 2-(4-(6-((4-cyano-2-fluorobenzyl)oxy)pyridin-2-yl)-2-(methylsulfonyl)benzyl)-1-(2-methoxyethyl)-1H-benzo[d]imidazole-6-carboxylic acid] | 8.3 | 504 | – | –
N#CCC1(Cn2c(Cc3ccc(-c4cccc(OCc5ccc(C#N)cc5F)n4)cc3C#N)nc3ccc(C(=O)O)cc32)CC1 [Example 388, 2-(2-cyano-4-(6-((4-cyano-2-fluorobenzyl)oxy)pyridin-2-yl)benzyl)-1-((1-(cyanomethyl)cyclopropyl)methyl)-1H-benzo[d]imidazole-6-carboxylic acid] | 5.17 | 0.24 | – | –
N#Cc1ccc(COc2cccc(-c3ccc(Cc4nc5ccc(C(=O)O)cc5n4CC4CC4)c(F)c3)n2)c(F)c1 [Example 389, 2-(4-(6-((4-cyano-2-fluorobenzyl)oxy)pyridin-2-yl)-2-fluorobenzyl)-1-(cyclopropylmethyl)-1H-benzo[d]imidazole-6-carboxylic acid] | <1.83 | 26.6 | – | –
COCCCn1c(Cc2ccc(-c3cccc(OCc4ccc(C#N)cc4F)n3)cc2F)nc2ccc(C(=O)O)cc21 [Example 390, 2-(4-(6-((4-cyano-2-fluorobenzyl)oxy)pyridin-2-yl)-2-fluorobenzyl)-1-(3-methoxypropyl)-1H-benzo[d]imidazole-6-carboxylic acid] | 7.5 | 26.4 | – | –
COCCn1c(Cc2ccc(-c3cccc(OCc4ccc(C#N)cc4F)n3)c(F)c2C#N)nc2ccc(C(=O)O)cc21 [Example 391, 2-(2-cyano-4-(6-((4-cyano-2-fluorobenzyl)oxy)pyridin-2-yl)-3-fluorobenzyl)-1-(2-methoxyethyl)-1H-benzo[d]imidazole-6-carboxylic acid] | 5.42 | ≥ 1000 | – | –
N#Cc1ccc(COc2cccc(-c3ccc(Cc4nc5ccc(C(=O)O)cc5n4CCCO)c(F)c3)n2)c(F)c1 [Example 392, 2-(4-(6-((4-cyano-2-fluorobenzyl)oxy)pyridin-2-yl)-2-fluorobenzyl)-1-(3-hydroxypropyl)-1H-benzo[d]imidazole-6-carboxylic acid] | 3.17 | 14.5 | – | –
N#Cc1ccc(COc2cccc(-c3ccc(Cc4nc5ccc(C(=O)O)cc5n4CC4(CF)CCC4)c(F)c3)n2)c(F)c1 [Example 393, 2-(4-(6-((4-cyano-2-fluorobenzyl)oxy)pyridin-2-yl)-2-fluorobenzyl)-1-((1-(fluoromethyl)cyclobutyl)methyl)-1H-benzo[d]imidazole-6-carboxylic] | 5 | 33.5 | – | –
N#Cc1ccc(COc2cccc(-c3ccc(Cc4nc5ccc(C(=O)O)cc5n4CCC4(CF)CC4)c(F)c3)n2)c(F)c1 [Example 394, 2-(4-(6-((4-cyano-2-fluorobenzyl)oxy)pyridin-2-yl)-2-fluorobenzyl)-1-(2-(1-(fluoromethyl)cyclopropyl)ethyl)-1H-benzo[d]imidazole-6-carboxylic acid] | 4.17 | 6.06 | – | –
N#Cc1ccc(COc2cccc(-c3ccc(Cc4nc5ccc(C(=O)O)cc5n4C[C@@H]4CCN4C4COC4)c(F)c3)n2)c(F)c1 [Example 395, (S)-2-(4-(6-((4-cyano-2-fluorobenzyl)oxy)pyridin-2-yl)-2-fluorobenzyl)-1-((1-(oxetan-3-yl)azetidin-2-yl)methyl)-1H-benzo[d]imidazole-6-carboxylic acid] | <1.83 | – | – | 42.3
N#Cc1ccc(COc2cccc(-c3ccc(Cc4nc5ccc(C(=O)O)cc5n4C[C@@H]4CCN4C4COC4)c(F)c3)n2)c(F)c1 [Example 396, (S)-2-(4-(6-((4-cyano-2-fluorobenzyl)oxy)pyridin-2-yl)-2-fluorobenzyl)-1-((1-(oxetan-3-yl)azetidin-2-yl)methyl)-1H-benzo[d]imidazole-6-carboxylic acid] | 8.67 | – | – | 45.5
